In brackets after ≈: the same amount, converted by molar mass. Where two headings read alike, the source gives them in different places. *1 amine or outer side, *2 acyl side, *3 side chain or, on linkers, in order; H or OH if unused. Where a SMILES comes first, the peptide text is derived from it. Bridges are numbered along the chain shown (N, C = ends). [ ]: non-standard residue; d: D form. The star is where a group is joined. ξ: configuration not given here. Phe(3,5-F2) = N[C@@H](Cc1cc(F)cc(F)c1)C(=O)O; NH(1-Me-indolin-5-yl) = CN1CCc2cc(N*)ccc21; Pro(4S-Me) = C[C@@H]1CN[C@H](C(=O)O)C1; NH(4-Cl-2-F-phenyl) = Fc1cc(Cl)ccc1N*; Pro(4R-Me) = C[C@H]1CN[C@H](C(=O)O)C1; Hyp = O=C(O)[C@@H]1C[C@@H](O)CN1; NH(4-Me-phenyl) = Cc1ccc(N*)cc1; ξNMeThr = CNC(C(=O)O)[C@@H](C)O; aThr = C[C@H](O)[C@H](N)C(=O)O; Pip = O=C(O)[C@@H]1CCCCN1; NMeA = CN[C@@H](C)C(=O)O; X2 = CN1CCc2ccc(N*)cc21; CO = O=C([*:1])[*:2]; X7 = CC/C=C/C(=O)*
Experiments:
Sa-ClpP = biological target: T1, Sa-ClpP (Staphylococcus aureus, UniProt Q2G036); assay: Sa-ClpP casein-BODIPY ClpP activation assay, method variant not marked in Table 5; format: biochemical, S. aureus
T1 construct: made in house; host or cells: E. coli BL21(DE3)
T1 sequence (Q2G036 1-195): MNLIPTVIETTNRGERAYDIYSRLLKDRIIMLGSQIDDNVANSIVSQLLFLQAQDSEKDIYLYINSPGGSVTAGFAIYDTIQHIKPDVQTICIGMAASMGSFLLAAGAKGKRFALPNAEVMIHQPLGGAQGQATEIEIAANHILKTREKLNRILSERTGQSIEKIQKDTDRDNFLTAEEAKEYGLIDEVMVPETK
Procedure, shortened: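 EC50 for activation derived by dose-response fitting of casein digestion rates, run in triplicate. Conditions: 37° C, pH 8 buffer with 200 mM KCl and 1 mM TCEP, 10 μM Sa-ClpP, 25 μg/ml BODIPY FL casein, compound at 0-1000 μM; signal at 485/528 nm followed 45 min.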

[1] = system: Staphylococcus aureus, USA 300; assay: Minimal inhibitory concentration assay; format: cell-based; conditions: USA300, read-out: Minimal Inhibitory Concentrations S. aureus USA 300
Procedure, shortened: (§1)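 Paired MICs against USA 300 and its ClpP-inactivated counterpart test whether killing runs through ClpP. All strains: two-fold broth dilutions from 200 μM final, ~10^5 cfu/mL inoculum, overnight at 37 °C in air, lowest growth-free concentration read by eye.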

[2] = system: Staphylococcus aureus, USA 300 wherein ClpP is inactivated; assay: Minimal inhibitory concentration assay; format: cell-based
Procedure, shortened: as §1

[3] = values without ** or † mark, assay variant not stated, read-out: ClpP Activation EC50

Which EC50 (Sa-ClpP; [3]) does the source give for `Cc1ccc(NC(=O)N[C@@H](Cc2cc(F)cc(F)c2)C(=O)N[C@@H]2C(=O)N3C[C@H](O)C[C@H]3C(=O)N(C)[C@@H](C)C(=O)N[C@@H](C)C(=O)N3C[C@@H](C)C[C@H]3C(=O)O[C@H]2C)cc1` [Compound 214, (S)-3-(3,5-difluorophenyl)-N-((2S,6S,9S,11aS,13R,17S,18S,20aS)-13-hydroxy-2,6,9,10,18-pentamethyl-5,8,11,16,20-pentaoxohexadecahydro-1H,5H,16H-dipyrrolo[2,1-c:2′,1′-l][1]oxa[4,7,10,13]tetraazacyclohexadecin-17-yl)-2-(3-(p-tolyl)ureido)propanamide] ({NH(4-Me-phenyl)-CO}-[Phe(3,5-F2)][aThr][Hyp][NMeA]A[Pro(4S-Me)]; ester 2-C) here?
The EC50 was 1280 ± 30 nM.

What about the MIC [1] of the same molecule?
Its MIC is 1.56 µM (≈ 1.24 µg/mL).

And the “Minimal Inhibitory Concentrations S. aureus USA 300 ΔClpP” value [2]?
The value was over 200 µM.

For `C[C@@H]1C[C@H]2C(=O)O[C@@H](C)[C@H](NC(=O)[C@H](Cc3cc(F)cc(F)c3)NC(=O)Nc3ccc4c(c3)N(C)CC4)C(=O)N3CCC[C@H]3C(=O)N3CCCC[C@H]3C(=O)N[C@@H](C)C(=O)N2C1` [Compound 321, (S)-3-(3,5-difluorophenyl)-2-(3-(1-methylindolin-6-yl)ureido)-N-((2R,6S,8aS,14aS,20S,21S,23aS)-2,6,21-trimethyl-5,8,14,19,23-pentaoxooctadecahydro-1H,5H,14H,19H-pyrido[2,1-i]dipyrrolo[2,1-c:2′,1′-l][1]oxa[4,7,10,13]tetraazacyclo-hexadecin-20-yl)propanamide] ({X2-CO}-[Phe(3,5-F2)][aThr]P[Pip]A[Pro(4R-Me)]; ester 2-C), which EC50 (Sa-ClpP; [3]) is on record?
Its EC50 is 520 ± 20 nM.

And the MIC [1]?
Its MIC is under 0.098 µM.

What about the “Minimal Inhibitory Concentrations S. aureus USA 300 ΔClpP” value [2] of the same molecule?
The value was under 0.098 µM.

Which EC50 (Sa-ClpP; [3]) does the source give for `CC/C=C/C(=O)N[C@@H](Cc1cc(F)cc(F)c1)C(=O)N[C@@H]1C(=O)N2C[C@H](O)C[C@H]2C(=O)N2CCCC[C@H]2C(=O)N[C@@H](C)C(=O)N2C[C@H](C)C[C@H]2C(=O)O[C@H]1C` [Compound 300] (X7-[Phe(3,5-F2)][aThr][Hyp][Pip]A[Pro(4R-Me)]; ester 2-C) here?
The EC50 was 440 ± 30 nM.

And the MIC [1]?
The MIC was 2.5 µM (≈ 1.93 µg/mL).

And the “Minimal Inhibitory Concentrations S. aureus USA 300 ΔClpP” value [2]?
Its value is over 20 µM.

For `C[C@@H]1C[C@H]2C(=O)O[C@@H](C)[C@H](NC(=O)[C@H](Cc3cc(F)cc(F)c3)NC(=O)Nc3ccc4c(c3)CCN4C)C(=O)N3CCC[C@H]3C(=O)N(C)C([C@@H](C)O)C(=O)N[C@@H](C)C(=O)N2C1` (stereo partly drawn) [Compound 311, (S)-3-(3,5-difluorophenyl)-N-((2R,6S,9R,11aS,17S,18S,20aS)-9-((R)-1-hydroxyethyl)-2,6,10,18-tetramethyl-5,8,11,16,20-pentaoxohexadecahydro-1H,5H,16H-dipyrrolo[2,1-c:2′,1′-l][1]oxa[4,7,10,13]tetraazacyclohexadecin-17-yl)-2-(3-(1-methylindolin-5-yl)ureido)propanamide] ({NH(1-Me-indolin-5-yl)-CO}-[Phe(3,5-F2)][aThr]P[ξNMeThr]A[Pro(4R-Me)]; ester 2-C), which EC50 (Sa-ClpP; [3]) is on record?
The EC50 was 540 ± 20 nM.

And the MIC [1]?
Its MIC is 0.156 µM (≈ 0.133 µg/mL).

And the “Minimal Inhibitory Concentrations S. aureus USA 300 ΔClpP” value [2]?
Its value is over 20 µM.

Which EC50 (Sa-ClpP) does the source give for `C[C@@H]1C[C@H]2C(=O)O[C@@H](C)[C@H](NC(=O)[C@H](Cc3cc(F)cc(F)c3)NC(=O)Nc3ccc(Cl)cc3F)C(=O)N3C[C@H](O)C[C@H]3C(=O)N3CCCC[C@H]3C(=O)N[C@@H](C)C(=O)N2C1` [Compound 329, (S)-2-(3-(4-chloro-2-fluorophenyl)ureido)-3-(3,5-difluorophenyl)-N-((2R,6S,8aS,14aS,16R,20S,21S,23aS)-16-hydroxy-2,6,21-trimethyl-5,8,14,19,23-pentaoxooctadecahydro-1H,5H,14H,19H-pyrido[2,1-i]dipyrrolo[2,1-c:2′,1′-l][1]oxa[4,7,10,13]tetraazacyclo-hexadecin-20-yl)propanamide] ({NH(4-Cl-2-F-phenyl)-CO}-[Phe(3,5-F2)][aThr][Hyp][Pip]A[Pro(4R-Me)]; ester 2-C) here?
The EC50 was 400 ± 20 nM.

And the MIC [1]?
The MIC was 0.039 µM (≈ 0.0336 µg/mL).

And the “Minimal Inhibitory Concentrations S. aureus USA 300 ΔClpP” value [2]?
Its value is 50 µM.

Reference: patent US10457707B2, “Substituted urea depsipeptide analogs as activators of the CLPP endopeptidase” (priority 2015, dated 2019)
